{"source": "paper PMC11161644", "about": "“An effective and rapidly degradable disinfectant from disinfection byproducts” (Nature Communications, 2024)", "key": {"E. coli (ATCC 25922)": {"tested_on": "E. coli (ATCC 25922)", "assay": "Inactivation of E. coli by disinfectants (membrane filter enumeration, contact time 5 min)", "type": "cell-based, Escherichia coli", "conditions": "for Log reduction (Mean ± SD): E. coli; for Log reduction (Mean ± SD) / E. coli inactivation rate constant k: pH 7.2, contact time 5 min; for log reduction at 3000 µg/mL: Escherichia coli, ATCC25922, 5 min, dose 3000 mg L-1, 5 min, read-out: Log (N/N0)", "experimental": "The chemicals and reagents used are detailed in Supplementary Note 1. The bacteria E. coli (ATCC 25922) and S. aureus (ATCC 25923) were cultured aerobically in Luria-Bertani broth (Sigma-Aldrich) and Tryptone Soya broth (Oxoid), respectively, at 37 °C for 16 h. The fungus C. albicans (ATCC 14053) was aerobically cultured in Sabouraud Dextrose broth (Difco) at 37 °C for 24 h. The microorganism cells were harvested by centrifugation at 1200×g (10 min, 4 °C) and resuspended in phosphate-buffered saline (PBS, 10 mM, pH 7.2). The disinfection experiments were performed in PBS solutions (10 mM, pH 7.2) with an initial concentration of E. coli, S. aureus, or C. albicans of 10^6‒10^7 cells per milliliter. A contact time of 5 min was used in accordance with the recommended time range of 0.25–10 min by USEPA for surface disinfection. Preliminary tests were conducted to determine the appropriate range of DBP doses. The appropriate dose range was established when the lowest and highest doses could achieve <1-log and >3-log of microbial inactivation, respectively. Based on the preliminary results, a series of doses of DBPs were added to the cell suspensions at room temperature (22 ± 1 °C). After the contact time of 5 min, the microorganism cells were enumerated following a membrane filter method. Briefly, serial 10-fold dilutions were conducted for the disinfected samples and the control sample without disinfection. Each diluted suspension was subjected to filtration through 0.45-μm membrane, which was then placed on a petri dish. The Petri dishes containing E. coli, S. aureus, and C. albicans were incubated in m-FC medium (Becton Dickinson & Co) at 45 °C for 24 h, in Tryptone Soya broth at 37 °C for 24 h and in Sabouraud Dextrose broth at 37 °C for 24 h, respectively. After incubation, the colony-forming units within a statistically reasonable range (20–80) were counted.\nThe impact of pH on the disinfection efficiencies of DBPs was examined. E. coli (ATCC 25922) was used as the test strain. The disinfection experiments were performed in 10 mM PBS solutions (pH 6.2, 7.2, and 8.2) with an initial E. coli concentration of 10^6‒10^7 cells per milliliter. To initiate the disinfection, a DBP was dosed with a bacteria suspension at a predetermined concentration. After the given contact time (5 min) at room temperature (22 ± 1 °C), the bacteria were enumerated following the membrane filter method. The bacteria concentrations in the 10 mM PBS solutions (pH 6.2, 7.2, and 8.2) without the addition of DBPs were used as controls."}, "[1]": {"assay": "UPLC/ESI-tqMS time profile of 2,6-DCQ and its degradation products in simulated seawater (pH 8.2, darkness); OH-DCQ formation", "conditions": "2,6-DCQ degradation, pH 8.2, darkness", "experimental": "A Waters UPLC system coupled with ESI-tqMS was used to characterize the degradation products of 2,6-DCQ. The UPLC separation was performed using an HSS T3 column (100 × 2.1 mm, 1.8 μm particle size, Waters) with a column temperature of 35 °C. A gradient eluent of methanol–water was applied at a flow rate of 0.4 mL min^−1. The gradient program was set as follows: methanol/water (v/v) ratio changed linearly from 5/95 to 90/10 in the first 8 min and then returned to 5/95 during 8.0‒8.1 min, which was held for 2.9 min for re-equilibration. The ESI-tqMS was set as follows: ESI negative mode, capillary voltage 2.8 kV, cone voltage 10–50 V (depending on analytes), cone gas flow 50 L h^−1, source temperature 120 °C, desolvation temperature 400 °C, desolvation gas flow 800 L h^−1, collision energy 15–50 eV (depending on analytes), collision gas (argon) flow 0.25 mL min^−1, and mass resolution 15 (1-unit resolution).\nThe degradation of 2,6-DCQ in seawater was simulated by adding 10 mg L^−1 2,6-DCQ to 50 mL ultrapure water, which was adjusted to pH 8.2 with 5 mM sodium carbonate (to simulate the alkalinity in seawater and also to be compatible with the subsequent UPLC/ESI-tqMS analysis). The sample was kept in darkness for 0–24 h, during which the pH of the sample was maintained at 8.1 ± 0.1. At a designated reaction time, 7.5 μL of the sample was injected into the UPLC system. For a nonhalogenated degradation product, the selected ion recording (SIR) mode with a dwell time of 0.05 s was adopted to obtain the retention time. For halogenated degradation products, the multiple reaction monitoring mode with a dwell time of 0.05 s was used to obtain the retention time and the isotopic abundance ratio. To investigate the time-dependent profile of 2,6-DCQ and its degradation products, the peak area of each compound was determined using the SIR mode in the UPLC/ESI-tqMS analysis.\nThe second aliquot was subjected to analysis of total organic halogen to quantify the collected OH-DCQ. The determination of total organic halogen was based on Standard Method 5320B[52], with modifications of using off-line ion chromatography for halide detection. Briefly, the aliquot was dissolved in 100 mL ultrapure water and acidified to pH 2 with concentrated nitric acid[52] prior to adsorption onto pre-packed activated carbon columns (Mitsubishi). A three-channel adsorption module (TXA03C, Mitsubishi Chemical Analytech) was used for adsorption. An AQF-100 automatic quick furnace (Mitsubishi Chemical Analytech) was used for pyrolysis. During the pyrolysis process, the chlorine atoms in OH-DCQ were converted to chloride. The chloride ion concentration was determined using an ICS-3000 ion chromatography system (Dionex). 2,6-DCQ was used as a standard compound for measuring total organic halogen to determine the recovery of the analysis. The total organic halogen analysis was conducted in duplicate."}}, "note": "Like-named read-outs stand apart in the source and are kept apart here.", "data": [{"compound": "O=C1C=C(Cl)C(=O)C=C1Cl", "note": "[2,5-DCQ]", "values": [{"measurement": "Log reduction (Mean ± SD)", "setting": "E. coli (ATCC 25922); dose 7.5 mg L−1", "value": "0.77 ± 0.14"}, {"measurement": "Log reduction (Mean ± SD)", "setting": "E. coli (ATCC 25922); dose 15 mg L−1", "value": "3.78 ± 0.40"}]}, {"compound": "O=C(O)c1cc(Br)ccc1O", "note": "[5-BSA, 5-bromosalicylic acid]", "values": [{"measurement": "log reduction at 3000 µg/mL", "setting": "E. coli (ATCC 25922); pH 6.2, E. coli, pH 6.2", "value": 0.221}, {"measurement": "log reduction at 3000 µg/mL", "setting": "E. coli (ATCC 25922); pH 7.2, E. coli, pH 7.2", "value": 0.132}, {"measurement": "log reduction at 3000 µg/mL", "setting": "E. coli (ATCC 25922); pH 8.2, E. coli, pH 8.2", "value": 0.331}, {"measurement": "E. coli inactivation rate constant k", "setting": "E. coli (ATCC 25922)", "value": "< 0.01", "unit": "L mg‒1 h‒1"}]}, {"compound": "O=C(O)c1cc(Cl)ccc1O", "note": "[5-CSA, 5-chlorosalicylic acid]", "values": [{"measurement": "log reduction at 3000 µg/mL", "setting": "E. coli (ATCC 25922); pH 6.2, E. coli, pH 6.2", "value": 0.218}, {"measurement": "log reduction at 3000 µg/mL", "setting": "E. coli (ATCC 25922); pH 7.2, E. coli, pH 7.2", "value": 0.273}, {"measurement": "log reduction at 3000 µg/mL", "setting": "E. coli (ATCC 25922); pH 8.2, E. coli, pH 8.2", "value": 0.304}, {"measurement": "E. coli inactivation rate constant k", "setting": "E. coli (ATCC 25922)", "value": "< 0.01", "unit": "L mg‒1 h‒1"}]}, {"compound": "O=C(O)c1cc(I)ccc1O", "note": "[5-ISA, 5-iodosalicylic acid]", "values": [{"measurement": "log reduction at 3000 µg/mL", "setting": "E. coli (ATCC 25922); pH 6.2, E. coli, pH 6.2", "value": 0.247}, {"measurement": "log reduction at 3000 µg/mL", "setting": "E. coli (ATCC 25922); pH 7.2, E. coli, pH 7.2", "value": 0.373}, {"measurement": "log reduction at 3000 µg/mL", "setting": "E. coli (ATCC 25922); pH 8.2, E. coli, pH 8.2", "value": 0.282}, {"measurement": "E. coli inactivation rate constant k", "setting": "E. coli (ATCC 25922)", "value": "< 0.01", "unit": "L mg‒1 h‒1"}]}, {"compound": "O=C1C=C(Cl)C(=O)C=C1O", "note": "[SIR 157, 3-hydroxyl-6-monochloro-1,4-benzoquinone]", "values": [{"measurement": "Peak area", "setting": "[1]; 0 h", "value": 131}, {"measurement": "Peak area", "setting": "[1]; 0.25 h", "value": 1090}, {"measurement": "Peak area", "setting": "[1]; 0.5 h", "value": 1291}, {"measurement": "Peak area", "setting": "[1]; 0.75 h", "value": 1521}, {"measurement": "Peak area", "setting": "[1]; 1 h", "value": 1656}, {"measurement": "Peak area", "setting": "[1]; 1.25 h", "value": 1663}, {"measurement": "Peak area", "setting": "[1]; 1.5 h", "value": 1773}, {"measurement": "Peak area", "setting": "[1]; 1.75 h", "value": 1891}, {"measurement": "Peak area", "setting": "[1]; 2 h", "value": 1830}, {"measurement": "Peak area", "setting": "[1]; 2.25 h", "value": 2020}, {"measurement": "Peak area", "setting": "[1]; 2.5 h", "value": 2128}, {"measurement": "Peak area", "setting": "[1]; 2.75 h", "value": 2115}, {"measurement": "Peak area", "setting": "[1]; 3 h", "value": 2124}, {"measurement": "Peak area", "setting": "[1]; 3.25 h", "value": 2427}, {"measurement": "Peak area", "setting": "[1]; 3.5 h", "value": 2418}, {"measurement": "Peak area", "setting": "[1]; 3.75 h", "value": 2409}, {"measurement": "Peak area", "setting": "[1]; 4 h", "value": 2447}, {"measurement": "Peak area", "setting": "[1]; 4.5 h", "value": 2594}, {"measurement": "Peak area", "setting": "[1]; 5 h", "value": 2821}, {"measurement": "Peak area", "setting": "[1]; 5.5 h", "value": 2983}, {"measurement": "Peak area", "setting": "[1]; 6 h", "value": 3514}, {"measurement": "Peak area", "setting": "[1]; 8 h", "value": 4489}, {"measurement": "Peak area", "setting": "[1]; 10 h", "value": 4560}, {"measurement": "Peak area", "setting": "[1]; 12 h", "value": 4418}, {"measurement": "Peak area", "setting": "[1]; 14 h", "value": 4868}, {"measurement": "Peak area", "setting": "[1]; 16 h", "value": 4755}, {"measurement": "Peak area", "setting": "[1]; 18 h", "value": 4648}, {"measurement": "Peak area", "setting": "[1]; 20 h", "value": 5024}, {"measurement": "Peak area", "setting": "[1]; 24 h", "value": 4289}]}, {"compound": "O=C1C=C(Cl)C(=O)C(OC2=C(Cl)C(=O)C(Cl)=CC2=O)=C1", "note": "[SIR 333]", "values": [{"measurement": "Peak area", "setting": "[1]; 0 h", "value": 25}, {"measurement": "Peak area", "setting": "[1]; 0.25 h", "value": 566}, {"measurement": "Peak area", "setting": "[1]; 0.5 h", "value": 1172}, {"measurement": "Peak area", "setting": "[1]; 0.75 h", "value": 1708}, {"measurement": "Peak area", "setting": "[1]; 1 h", "value": 2037}, {"measurement": "Peak area", "setting": "[1]; 1.25 h", "value": 2462}, {"measurement": "Peak area", "setting": "[1]; 1.5 h", "value": 2725}, {"measurement": "Peak area", "setting": "[1]; 1.75 h", "value": 2905}, {"measurement": "Peak area", "setting": "[1]; 2 h", "value": 3055}, {"measurement": "Peak area", "setting": "[1]; 2.25 h", "value": 3331}, {"measurement": "Peak area", "setting": "[1]; 2.5 h", "value": 3689}, {"measurement": "Peak area", "setting": "[1]; 2.75 h", "value": 3558}, {"measurement": "Peak area", "setting": "[1]; 3 h", "value": 3681}, {"measurement": "Peak area", "setting": "[1]; 3.25 h", "value": 3675}, {"measurement": "Peak area", "setting": "[1]; 3.5 h", "value": 3524}, {"measurement": "Peak area", "setting": "[1]; 3.75 h", "value": 3765}, {"measurement": "Peak area", "setting": "[1]; 4 h", "value": 3768}, {"measurement": "Peak area", "setting": "[1]; 4.5 h", "value": 3886}, {"measurement": "Peak area", "setting": "[1]; 5 h", "value": 4092}, {"measurement": "Peak area", "setting": "[1]; 5.5 h", "value": 3835}, {"measurement": "Peak area", "setting": "[1]; 6 h", "value": 3706}, {"measurement": "Peak area", "setting": "[1]; 8 h", "value": 3365}, {"measurement": "Peak area", "setting": "[1]; 10 h", "value": 2830}, {"measurement": "Peak area", "setting": "[1]; 12 h", "value": 2308}, {"measurement": "Peak area", "setting": "[1]; 14 h", "value": 1768}, {"measurement": "Peak area", "setting": "[1]; 16 h", "value": 1379}, {"measurement": "Peak area", "setting": "[1]; 18 h", "value": 1089}, {"measurement": "Peak area", "setting": "[1]; 20 h", "value": 896}, {"measurement": "Peak area", "setting": "[1]; 24 h", "value": 463}]}]}
